Results taken from ChEMBL document CHEMBL3879901, “Substituted isoquinolin-1(2H)-ones, and methods of use thereof” (2012).

What was measured:
[1] = target: PI3-kinase p110-delta/p85-alpha (Homo sapiens, UniProt O00329); experiment: Inhibition of N-terminal His6-tagged recombinant full-length human p110delta/untagged recombinant full length p85alpha expressed in baculovirus infected Sf21 cells using phosphatidylinositol as substrate in presence of gamma-32P-ATP after 5 mins by thin layer chromatographic method
[2] = Antiproliferative activity against Balb/c mouse splenic B cells preincubated for 30 mins followed by LPS or F(ab')2 donkey anti-mouse IgM and recombinant mouse IL4 stimulation measured after 72 hrs by Alamar Blue reduction assay; type: functional, cell-based

PI3-kinase p110-delta/p85-alpha, sequence (P27986 whole entry): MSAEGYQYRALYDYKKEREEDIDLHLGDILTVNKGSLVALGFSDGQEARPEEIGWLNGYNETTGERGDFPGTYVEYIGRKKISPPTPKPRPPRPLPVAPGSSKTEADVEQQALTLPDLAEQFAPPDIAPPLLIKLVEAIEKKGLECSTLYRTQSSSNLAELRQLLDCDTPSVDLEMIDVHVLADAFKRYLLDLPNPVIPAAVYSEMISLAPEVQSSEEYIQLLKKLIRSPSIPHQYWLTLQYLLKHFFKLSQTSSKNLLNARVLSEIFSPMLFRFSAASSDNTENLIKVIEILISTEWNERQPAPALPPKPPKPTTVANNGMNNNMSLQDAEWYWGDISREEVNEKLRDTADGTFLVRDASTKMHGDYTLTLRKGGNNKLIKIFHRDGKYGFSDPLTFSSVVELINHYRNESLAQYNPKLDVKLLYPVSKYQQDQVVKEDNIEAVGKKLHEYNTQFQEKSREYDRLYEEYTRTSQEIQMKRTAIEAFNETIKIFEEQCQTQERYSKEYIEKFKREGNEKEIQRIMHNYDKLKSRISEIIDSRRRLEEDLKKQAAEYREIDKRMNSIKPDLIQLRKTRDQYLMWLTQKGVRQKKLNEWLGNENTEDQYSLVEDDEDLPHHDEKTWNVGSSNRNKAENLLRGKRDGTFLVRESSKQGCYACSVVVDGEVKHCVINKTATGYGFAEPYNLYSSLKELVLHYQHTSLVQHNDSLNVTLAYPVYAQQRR
PI3-kinase p110-delta/p85-alpha, sequence (O00329 whole entry): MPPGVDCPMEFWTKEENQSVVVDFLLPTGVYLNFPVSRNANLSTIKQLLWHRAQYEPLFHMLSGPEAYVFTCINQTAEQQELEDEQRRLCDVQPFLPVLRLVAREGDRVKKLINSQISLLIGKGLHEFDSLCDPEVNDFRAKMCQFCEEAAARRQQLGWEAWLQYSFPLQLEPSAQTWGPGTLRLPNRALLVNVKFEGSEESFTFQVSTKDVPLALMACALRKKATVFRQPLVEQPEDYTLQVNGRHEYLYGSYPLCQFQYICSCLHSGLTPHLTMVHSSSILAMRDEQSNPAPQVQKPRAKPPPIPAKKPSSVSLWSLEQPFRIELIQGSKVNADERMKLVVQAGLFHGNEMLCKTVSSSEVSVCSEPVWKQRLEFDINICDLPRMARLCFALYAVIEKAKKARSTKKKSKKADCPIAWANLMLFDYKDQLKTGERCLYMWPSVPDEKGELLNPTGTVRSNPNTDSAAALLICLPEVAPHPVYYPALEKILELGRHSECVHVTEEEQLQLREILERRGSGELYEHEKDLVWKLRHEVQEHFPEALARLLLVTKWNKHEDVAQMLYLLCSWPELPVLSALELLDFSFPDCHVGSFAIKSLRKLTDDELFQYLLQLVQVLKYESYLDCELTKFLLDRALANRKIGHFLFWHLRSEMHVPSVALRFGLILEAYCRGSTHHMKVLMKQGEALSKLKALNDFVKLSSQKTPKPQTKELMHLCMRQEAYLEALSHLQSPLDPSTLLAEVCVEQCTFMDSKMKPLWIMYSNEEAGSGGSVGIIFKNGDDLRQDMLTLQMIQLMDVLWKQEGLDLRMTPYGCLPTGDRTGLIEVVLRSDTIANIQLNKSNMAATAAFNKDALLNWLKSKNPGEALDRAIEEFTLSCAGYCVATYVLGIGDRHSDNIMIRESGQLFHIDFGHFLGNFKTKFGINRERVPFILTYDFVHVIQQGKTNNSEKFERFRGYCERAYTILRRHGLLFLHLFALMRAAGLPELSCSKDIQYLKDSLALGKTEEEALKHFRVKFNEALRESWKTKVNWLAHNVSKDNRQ

Compound | IC50 [1] | EC50 [2]
C=Cc1nn(Cc2cc3cccc(C)c3c(=O)n2-c2ccccc2)c2ncnc(N)c12 | < 100 nM | < 100 nM
Cc1ccccc1-n1c(Cn2nc(CC#N)c3c(N)ncnc32)cc2cccc(C)c2c1=O | < 100 nM | < 1000 nM
Cc1cccc2cc(C(C)Nc3ncnc4[nH]cnc34)n(C3CC3)c(=O)c12 (centres undefined) | – | < 100 nM
CCC(Nc1ncnc2[nH]cnc12)c1cc2cccc(C)c2c(=O)n1C(C)C (centres undefined) | < 100 nM | < 100 nM
Cc1cccc2cc(Cn3nc(-c4cn[nH]c4)c4c(N)ncnc43)n(-c3ccccc3)c(=O)c12 | < 100 nM | < 100 nM
Cc1ccccc1-n1c(Cn2nc(-c3ccc(CN)cc3)c3c(N)ncnc32)cc2cccc(C)c2c1=O | < 10000 nM | –
CC(C)n1c(Cn2nc(-c3cccc(O)c3)c3c(N)ncnc32)cc2ccccc2c1=O | < 100 nM | < 1000 nM
Cc1cccc2cc([C@@H](C)Nc3ncnc4[nH]cnc34)n(C3CCC3)c(=O)c12 | – | < 10000 nM
CCC(Nc1ncnc2[nH]cnc12)c1cc2cccc(C)c2c(=O)n1C1CCC1 (centres undefined) | < 100 nM | < 1000 nM
Cc1ccccc1-n1c(Cn2nc(-c3cccc(O)c3)c3c(N)nccc32)cc2cccc(C)c2c1=O | < 100 nM | < 1000 nM
CC(C)n1c(Cn2nc(-c3cc(O)cc(F)c3)c3c(N)ncnc32)cc2cccc(Cl)c2c1=O | < 100 nM | < 100 nM
Cc1cccc2cc(C(C)Nc3ncnc4[nH]cnc34)n(-c3cc(F)cc(F)c3)c(=O)c12 (centres undefined) | < 100 nM | < 100 nM
CNC(=O)c1cccc(-c2nn(Cc3cc4cccc(C)c4c(=O)n3-c3ccccc3C)c3ncnc(N)c23)c1 | < 10000 nM | –
Cc1cccc2cc(Cn3nc(-c4ccc(Cl)c(O)c4)c4c(N)ncnc43)n(C(C)C)c(=O)c12 | < 100 nM | < 100 nM
CCn1c(Cn2nc(-c3cccc(O)c3)c3c(N)ncnc32)cc2cccc(C)c2c1=O | < 100 nM | < 100 nM
Cc1cccc2cc(Cn3nc(-c4cccc(O)c4)c4c(N)ncnc43)n(C)c(=O)c12 | < 100 nM | < 1000 nM
CC(C)n1c(Cn2nc(-c3cccc(O)c3)c3c(N)ncnc32)cc2cccc(Cl)c2c1=O | < 100 nM | < 100 nM
Cc1cccc2cc(C(C)Nc3ncnc4[nH]cnc34)n(CCN3CCOCC3)c(=O)c12 (centres undefined) | < 100 nM | < 100 nM
Nc1ncnc2c1c(I)nn2Cc1cc2cccc(F)c2c(=O)n1-c1ccccc1F | < 10000 nM | –
Cc1ccccc1-n1c(Cn2nc(C(N)=O)c3c(N)ncnc32)cc2cccc(C)c2c1=O | – | < 100 nM

Compound | IC50 [1] | EC50 [2]
Cc1cccc2cc([C@@H](C)Nc3ncnc4[nH]cnc34)n(C3CC3)c(=O)c12 | – | > 10000 nM
Cc1cccc2cc(Cn3nc(-c4cn[nH]c4)c4c(N)ncnc43)n(-c3ccccc3C(F)(F)F)c(=O)c12 | < 100 nM | < 100 nM
Cc1cccc2cc(C(C)Nc3ncnc4[nH]cnc34)n(-c3cccc(F)c3)c(=O)c12 (centres undefined) | < 100 nM | < 100 nM
Cc1cccc2cc([C@H](C)Nc3nc(Cl)ncc3Cl)n(-c3ccccc3)c(=O)c12 | – | < 100 nM
Cc1cccc2cc(Cn3nc(-c4cc(O)cc(F)c4)c4c(N)ncnc43)n(C3CCOCC3)c(=O)c12 | < 100 nM | < 100 nM
CCc1nn(Cc2cc3cccc(C)c3c(=O)n2-c2ccccc2)c2ncnc(N)c12 | < 100 nM | < 100 nM
CCC(Nc1ncnc2[nH]cnc12)c1cc2cccc(C)c2c(=O)n1-c1ccccc1C (centres undefined) | < 100 nM | < 100 nM
Cc1cccc2cc(C(C)Nc3ncnc4[nH]cnc34)n(C(C)C)c(=O)c12 (centres undefined) | < 100 nM | < 100 nM
Nc1ncnc2c1c(I)nn2Cc1cc2cccc(Cl)c2c(=O)n1C1CC1 | < 100 nM | < 100 nM
Cc1cccc2cc([C@H](C)Nc3nc(N)ncc3F)n(-c3ccccc3)c(=O)c12 | < 100 nM | –
Cc1cccc2cc([C@H](C)Nc3ncnc4[nH]nc(Cl)c34)n(C3CC3)c(=O)c12 | < 100 nM | –
Cc1cccc2cc(C(C)Nc3ncnc4[nH]cnc34)n(C3CCN(C)CC3)c(=O)c12 (centres undefined) | < 100 nM | < 100 nM
Cc1ccccc1-n1c(Cn2nc(-c3cc(O)cc(F)c3)c3c(N)ncnc32)cc2ccccc2c1=O | < 100 nM | < 100 nM
Cc1ccccc1-n1c(Cn2nc(C(=O)NO)c3c(N)ncnc32)cc2cccc(C)c2c1=O | – | < 100 nM
CCC(Nc1ncnc2[nH]cnc12)c1cc2ccccc2c(=O)n1-c1ccccc1 (centres undefined) | < 100 nM | < 100 nM
Cc1cccc2cc([C@H](C)Nc3ncnc4ccccc34)n(-c3ccccc3)c(=O)c12 | < 100 nM | –
Cc1cccc2cc([C@@H](C)Nc3ncnc4[nH]cnc34)n(-c3ccccc3)c(=O)c12 | – | < 1000 nM
Cc1cccc2cc(C(C)Nc3ncnc4[nH]cnc34)n(-c3ccccc3)c(=O)c12 (centres undefined) | – | < 100 nM
COc1ccc(-c2nn(Cc3cc4cccc(C)c4c(=O)n3-c3ccccc3F)c3ncnc(N)c23)cc1 | – | < 1000 nM
CC(Nc1ncnc2[nH]cnc12)c1cc2cccc(Cl)c2c(=O)n1-c1ccccc1 (centres undefined) | – | < 100 nM

Compound | IC50 [1] | EC50 [2]
CCc1nn(Cc2cc3cccc(C)c3c(=O)n2-c2ccccc2C)c2ncnc(N)c12 | < 100 nM | < 1000 nM
Cc1cccc2cc(Cn3nc(-c4cc(O)cc(F)c4)c4c(N)ncnc43)n(C)c(=O)c12 | < 100 nM | < 100 nM
C=C(C)c1nn(Cc2cc3cccc(C)c3c(=O)n2-c2ccccc2)c2ncnc(N)c12 | < 100 nM | –
CCC(Nc1ncnc2[nH]cnc12)c1cc2cccc(C)c2c(=O)n1C1CCN(C)CC1 (centres undefined) | – | < 100 nM
CC(C)n1c(Cn2nc(-c3cc(O)cc(F)c3)c3c(N)ncnc32)cc2cccc(F)c2c1=O | < 100 nM | < 100 nM
CCC(Nc1ncnc2[nH]cnc12)c1cc2cccc(C)c2c(=O)n1-c1cc(F)cc(F)c1 (centres undefined) | < 100 nM | < 100 nM
Nc1ncnc2c1c(I)nn2Cc1cc2cccc(I)c2c(=O)n1C1CCCC1 | – | < 10000 nM
CC(Nc1ncnc2[nH]cnc12)c1cc2ccccc2c(=O)n1-c1ccccc1 (centres undefined) | < 100 nM | < 100 nM
Cc1cccc2cc(C(C)Nc3ncnc4[nH]cnc34)n(CCN3CCCC3)c(=O)c12 (centres undefined) | < 100 nM | < 100 nM
Cc1cccc2cc([C@H](C)Nc3nc(N)ncc3Cl)n(C3CC3)c(=O)c12 | < 100 nM | –
Nc1ncnc2c1c(-c1ccc(Cl)c(O)c1)nn2Cc1cc2cccc(I)c2c(=O)n1C1CCCC1 | – | < 10000 nM
Cc1cccc2cc(C(C)Nc3ncnc4[nH]cnc34)n(C3CCOCC3)c(=O)c12 (centres undefined) | < 100 nM | < 100 nM
CC(C)n1c(Cn2nc(I)c3c(N)ncnc32)cc2cccc(F)c2c1=O | < 10000 nM | –
Nc1ncnc2c1c(-c1cc(O)cc(F)c1)nn2Cc1cc2cccc(F)c2c(=O)n1-c1ccccc1F | < 100 nM | < 100 nM
Nc1ncnc2c1c(-c1cccc(O)c1)nn2Cc1cc2cccc(F)c2c(=O)n1-c1ccccc1F | < 1000 nM | –
Cc1cccc2cc(C(C)Nc3ncnc4[nH]cnc34)n(C3CCC3)c(=O)c12 (centres undefined) | < 100 nM | < 100 nM
C[C@H](Nc1ncnc2nc[nH]c12)c1cc2cccc(Cl)c2c(=O)n1-c1ccccc1 [DUVELISIB] | – | < 100 nM
Cc1cccc2cc(Cn3nc(C(F)F)c4c(N)ncnc43)n(-c3ccccc3)c(=O)c12 | < 100 nM | < 100 nM
Cc1cccc(C)c1-n1c(CNc2ncnc3[nH]cnc23)cc2cccc(C)c2c1=O | < 100 nM | –
CC(C)n1c(Cn2nc(-c3cccc(O)c3)c3c(N)ncnc32)cc2cccc(F)c2c1=O | – | < 1000 nM
